Data from PubChem BioAssay AID1963842 (Molecular Pharmacology Branch, DTP, NCI, 2024).

System: 677734-321-R-J1-PDC complex spheroid viability
Experiment: Anticancer human tumor 677734-321-R-J1-PDC patient-derived soft tissue sarcoma cell line growth inhibition [POLQ]
Conditions: for IC50: curve of first compound; for viability, T/C: stronger effect = lower value
Description: Multicellular complex tumor spheroid response to Polymerase (POL) inhibitors (novobiocin, ART-558, RP6685) in combination with a variety of drugs and investigational agents in selected tumor cell lines
The POL inhibitors (novobiocin, ART-558, and RP6685) were evaluated both individually and in combination with standard of care and investigational anticancer small molecules within a complex spheroid model of solid tumors. . Complex spheroids include a stromal component modeled by human endothelial cells (HUVEC) and fibroblasts modeled by human mesenchymal stem cells (MSCs). The concentration ranges selected for each drug and investigational agent were based upon clinically achievable concentrations if the clinical Cmax of the agent was known.
Compounds. The drugs and investigational agents: novobiocin (NSC847541), ART-558 (NSC835418), RP-6685 (NSC848927), peposertib (NSC802822), ceralasertib (NSC780249), elimusertib (NSC800525), camonsertib (NSC841442), AZD-1390 (NSC803789), olaparib (NSC753686), talazoparib (NSC767125), rucaparib (NSC756644), sotorasib (NSC818433), MRTX-1133 (NSC836407), SN-38 (NSC673596), topotecan (NSC609699), epotoside (NSC141540), doxorubicin (NSC123127), gemcitabine (NSC613327), 5-fluorouracil (NSC19893), paclitaxel (NSC125973), vemurafenib (NSC761431), MSA-2 (NSC828583), SN-011 (NSC837082), adavosertib (NSC754352), prexasertib (NSC758257), carboplatin (NSC241240) and oxaliplatin (NSC266046), were obtained from the National Cancer Institute (NCI) Developmental Therapeutics Program Chemical Repository (21). The FDA-approved anticancer drug set is available from the Developmental Therapeutics Program at https://dtp.cancer.gov/organization/dscb/obtaining/. […] The stock solutions were prepared in dimethyl sulfoxide (DMSO, Sigma-Aldrich, St. Louis, MO, cat. D2650), except for the platinum compounds which were prepared in saline (Quality Biological, Gaithersburg, MD, cat. 114-055-101), at 800-fold the tested concentration and stored at -70 degrees C prior to their use. All drugs and investigational agents were tested over a range starting from a high concentration at or near the clinical Cmax and decreasing in half-log increments. If the clinical Cmax for an agent had not been determined, the highest concentration tested was 10 microM, except for SN-38, which was tested at a high concentration of 1 microM.
Cell Culture. All cells were maintained in an incubator at 37 degrees C and 5% CO2 with 95% humidity. The PDC lines were cultured according to standard operating procedures established by the NCI PDMR (https://pdmr.cancer.gov). Table 3 of the manuscript, lists the cell lines along with the number of the three cell types plated to form the mct-spheroids and media for tumor cell growth. After thawing, all PDC lines, except 997537-175-T-J1-PDC and 415267-285-R-J2-PDC, were cultured in Matrigel-coated flasks prepared with a working solution of 1X Ham's F-12 nutrient mix, without supplementation (Thermo Fisher Scientific, cat. 11765054), 100 U/mL penicillin-streptomycin (Thermo Fisher Scientific, cat. 15140122), and 2.5% Matrigel (Corning Inc., Corning, NY, cat. 354248) for the first three passages. The two PDC lines 997537-175-T-J1-PDC and 415267-285-R-J2-PDC were cultured on uncoated flasks. The 857933-349-R-J2-PDC line was cultured in 6C/Colon 1B media containing advanced DMEM/F-12 (Thermo Fisher Scientific, cat. 12634028), 10 mM HEPES (Thermo Fisher Scientific, cat. 15630080), 1X GlutaMAX supplement (Thermo Fisher Scientific, cat. 35050061), 0.1 mg/mL primocin (InvivoGen, San Diego, CA, cat. ant-pm-2), 10% defined fetal bovine serum, heat inactivated (HyClone Laboratories Inc., Logan, UT, cat. SH30070.03HI), 50% L-WRN conditioned media (ATCC, cat. CRL-3276), 1.25 mM N-Acetyl-L-cysteine (Sigma-Aldrich, cat. A9165), 10 mM nicotinamide (Sigma-Aldrich, cat. N0636), 1X B-27 supplement (Thermo Fisher Scientific, cat. 17504044), 1X N-2 supplement (Thermo Fisher Scientific, cat. […]
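Further: spheroids exposed to compounds for one week.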
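Wherever viability, T/C is given: 100% = vehicle DMSO treated spheroids.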

CC(C)n1c(=O)n(C)c2cnc3cc(F)c(-c4ccc(OCCCN5CCCCC5)nc4)cc3c21 + Cc1cccc(N(C)C(=O)C2C(O)CCN2c2nc(C)cc(C(F)(F)F)c2C#N)c1
IC50 (second compound 0.0316 µM): > 10 µM | IC50 (second compound 0.1 µM): > 10 µM | IC50 (second compound 0.316 µM): > 10 µM | IC50 (second compound 1 µM): > 10 µM | IC50 (second compound 3.16 µM): > 10 µM | IC50 (second compound 10 µM): > 10 µM | viability, T/C (second compound 0.0316 µM, first compound 0.0316 µM): 104% | viability, T/C (second compound 0.0316 µM, first compound 0.1 µM): 98.6% | viability, T/C (second compound 0.0316 µM, first compound 0.316 µM): 104% | viability, T/C (second compound 0.0316 µM, first compound 1 µM): 98.2% | viability, T/C (second compound 0.0316 µM, first compound 3.16 µM): 99% | viability, T/C (second compound 0.0316 µM, first compound 10 µM): 92.4% | viability, T/C (second compound 0.1 µM, first compound 0.0316 µM): 104% | viability, T/C (second compound 0.1 µM, first compound 0.1 µM): 101% | viability, T/C (second compound 0.1 µM, first compound 0.316 µM): 99.4% | viability, T/C (second compound 0.1 µM, first compound 1 µM): 100% | viability, T/C (second compound 0.1 µM, first compound 3.16 µM): 98.7% | viability, T/C (second compound 0.1 µM, first compound 10 µM): 88.6% | viability, T/C (second compound 0.316 µM, first compound 0.0316 µM): 101% | viability, T/C (second compound 0.316 µM, first compound 0.1 µM): 91.6% | viability, T/C (second compound 0.316 µM, first compound 0.316 µM): 102% | viability, T/C (second compound 0.316 µM, first compound 1 µM): 109% | viability, T/C (second compound 0.316 µM, first compound 3.16 µM): 106% | viability, T/C (second compound 0.316 µM, first compound 10 µM): 99.8% | viability, T/C (second compound 1 µM, first compound 0.0316 µM): 110% | viability, T/C (second compound 1 µM, first compound 0.1 µM): 93.5% | viability, T/C (second compound 1 µM, first compound 0.316 µM): 99% | viability, T/C (second compound 1 µM, first compound 1 µM): 108% | viability, T/C (second compound 1 µM, first compound 3.16 µM): 104% | viability, T/C (second compound 1 µM, first compound 10 µM): 88.1% | viability, T/C (second compound 3.16 µM, first compound 0.0316 µM): 98.7% | viability, T/C (second compound 3.16 µM, first compound 0.1 µM): 102% | viability, T/C (second compound 3.16 µM, first compound 0.316 µM): 109% | viability, T/C (second compound 3.16 µM, first compound 1 µM): 106% | viability, T/C (second compound 3.16 µM, first compound 3.16 µM): 99.3% | viability, T/C (second compound 3.16 µM, first compound 10 µM): 92.4% | viability, T/C (second compound 10 µM, first compound 0.0316 µM): 101% | viability, T/C (second compound 10 µM, first compound 0.1 µM): 98.8% | viability, T/C (second compound 10 µM, first compound 0.316 µM): 97.5% | viability, T/C (second compound 10 µM, first compound 1 µM): 95.8% | viability, T/C (second compound 10 µM, first compound 3.16 µM): 97.4% | viability, T/C (second compound 10 µM, first compound 10 µM): 92.5%
